Data reported in patent US20250312321A1, “TRANSIENT SIROLIMUS WITH FASL MICROGELS” (iTOLERANCE, Inc., priority 2022, published 2025).

Parameters: species or system non-human primates (Cyno)
Settings: cynomolgus monkey, in vivo
Protocol: Biotinylated PEG microgels (150 μm diameter) were synthesized by microfluidic cross-linking and functionalized with SA-FasL as previously described (Headon, D M, et al., Nat. Mater. 17:732-739 (2018)). Four diabetic non-human primates (NHP) (FIG. 1B; Tables 1 and 2) underwent transplantation of allogeneic islets (14,800 to 18,700 islet equivalents (IEQ)/kg) mixed with SA-FasL-presenting microgels (150,000 to 200,000 microgels delivering 0.2 mg of SA-FasL) on the omental surface. […]
At selected time points, intravenous glucose tolerance tests (IVGTT) were performed to assess glucose disposal kinetics and insulin and C-peptide levels. […] Consistent with these metrics of graft function, background levels of insulin and C-peptide were measured in the serum of SA-FasL microgel NHPs after STZ administration but before islet transplant and equivalently low levels were evident post-graft removal (insulin: pre-STZ vs. post-STZ, P<0.0001; post-STZ vs. post-graft removal (PGR), P=0.9998; C-peptide: pre-STZ vs. post-STZ, P=0.0060; post-STZ vs. post-graft removal, P=0.4032) (FIG. 2D). […] SA-FasL protein was detected in the serum of all NHPs as early as 1-day after transplantation ranging from 4-56 ng/mL and decreasing to background levels by days 7-14.

Time after discontinuation at which sirolimus levels became undetectable: 2 weeks
SMILES: CO[C@H]1C[C@@H]2CC[C@@H](C)[C@@](O)(O2)C(=O)C(=O)N2CCCC[C@H]2C(=O)O[C@H]([C@H](C)C[C@@H]2CC[C@@H](O)[C@H](OC)C2)CC(=O)[C@H](C)/C=C(\C)[C@@H](O)[C@@H](OC)C(=O)[C@H](C)C[C@H](C)/C=C/C=C/C=C/1C [Sirolimus]
